This passage reports EC50 results from US12570642B2, “GLP-IR modulating compounds” (Gilead Sciences, Inc., priority 2021, dated 2026).

This assay deals with GLP-1R (Homo sapiens, UniProt P43220). The assay is described as follows: GLP-1R Activation - cAMP Assay. The class given is cell-based. To be noted: cAMP increase in CHO cells stably expressing GLP-1R; each compound run on one of the two cAMP assays (Assay 1 or Assay 2, not specified). As for the experimental part:
GLP-1R Activation—cAMP Assay 1
GLP-1R activation by compounds of the present disclosure were quantified by measuring cAMP increase in CHO cells stably expressing GLP-1R (MultiSpan product #C1267-1a). The cells were harvested and plated in growth medium (DMEM/F-12 (Corning product #10-090-CV) supplemented with 10% FBS (HyClone product #SH30071-03), penicillin/streptomycin (Corning product #30-002CI) and 10 μg/ml puromycin (Gibco product #A11138-03)) at 1,000 cells/well in a 384-well plate (Greiner product #781080). The cells were then incubated overnight at 37° C., 5% CO2. The next day, the medium was removed and the cells were washed with DPBS (Corning product #21-031-CM) before adding the assay medium (HBSS, Corning product #21-023-CV) with 20 mM Hepes (Gibco product #15630-080) and 0.1% BSA (Rockland Immunochemicals product #BSA-1000)). Following the medium change, the cells were incubated for 1 hour at 37° C., 5% CO2. The tested GLP-1 compound was added to the cells in a 10-point dose response followed by a 30 minutes incubation at 37° C., 5% CO2. cAMP concentration increase was then detected using Cisbio's cAMP Gs Dynamic Kit (product #62AM4PEC) according to the manufacturer's protocol. The response was plotted against the log of the agonist concentration and fitted to a sigmoidal equation to determine the EC50.

GLP-1R, sequence (P43220 24-463): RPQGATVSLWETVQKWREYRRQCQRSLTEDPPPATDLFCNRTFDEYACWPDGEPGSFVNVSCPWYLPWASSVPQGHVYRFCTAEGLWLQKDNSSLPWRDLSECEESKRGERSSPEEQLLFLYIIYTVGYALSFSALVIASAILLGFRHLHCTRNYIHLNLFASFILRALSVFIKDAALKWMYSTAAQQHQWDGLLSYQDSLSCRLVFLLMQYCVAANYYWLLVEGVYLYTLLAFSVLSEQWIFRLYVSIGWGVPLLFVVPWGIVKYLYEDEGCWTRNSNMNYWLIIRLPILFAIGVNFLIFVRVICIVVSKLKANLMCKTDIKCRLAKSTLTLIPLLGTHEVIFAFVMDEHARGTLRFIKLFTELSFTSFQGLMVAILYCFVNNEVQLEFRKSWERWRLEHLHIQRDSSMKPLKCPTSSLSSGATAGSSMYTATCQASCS

As for `CC1(C)COCC1n1c(Cc2cc(F)c(-c3ccc(F)c(OCc4ccc(C#N)cc4F)n3)cc2Cl)nc2c(F)cc(C(=O)O)cc21` (stereo not drawn) [Example 346, 2-(2-chloro-4-(6-((4-cyano-2-fluorobenzyl)oxy)-5-fluoropyridin-2-yl)-5-fluorobenzyl)-1-(4,4-dimethyltetrahydrofuran-3-yl)-4-fluoro-1H-benzo[d]imidazole-6-carboxylic acid], the EC50 came to 75 pM.
Turning to `N#Cc1ccc(COc2cccc(-c3cc(F)c(Cc4nc5ccc(C(=O)O)cc5n4[C@@H]4CO[C@H]5COC[C@H]54)cc3F)n2)c(F)c1` [Example 79, 2-(4-(6-((4-cyano-2-fluorobenzyl)oxy)pyridin-2-yl)-2,5-difluorobenzyl)-1-((3S,3aR,6aR)-hexahydrofuro[3,4-b]furan-3-yl)-1H-benzo[d]imidazole-6-carboxylic Acid], the EC50 was found to be 5620 pM.
The compound `CC1(C)COCC1n1c(Cc2cc(F)c(-c3ccnc(OCc4ccc(C(F)F)cc4F)n3)cc2F)nc2c(F)cc(C(=O)O)cc21` (stereo not drawn) [Example 504, 2-(4-(2-((4-(difluoromethyl)-2-fluorobenzyl)oxy)pyrimidin-4-yl)-2,5-difluorobenzyl)-1-(4,4-dimethyltetrahydrofuran-3-yl)-4-fluoro-1H-benzo[d]imidazole-6-carboxylic acid] yielded an EC50 of 148 pM.
Take `COCCn1c(Cc2cc(F)c(-c3cccc(OCc4ncc(C#N)cc4F)n3)cc2F)nc2ccc(C(=O)O)cc21` [Example 39]: the midpoint of the response, the EC50, lay at 8980 pM.
In the case of `CC1(C)OCCC1n1c(Cc2cc(F)c(-c3cccc(OCc4ccc(C#N)cc4F)n3)cc2F)nc2ccc(C(=O)O)cc21` (stereo not drawn) [Example 74, 2-(4-(6-((4-cyano-2-fluorobenzyl)oxy)pyridin-2-yl)-2,5-difluorobenzyl)-1-(2,2-dimethyltetrahydrofuran-3-yl)-1H-benzo[d]imidazole-6-carboxylic Acid] it was 4380 pM; in that of `CC1(C)COC[C@H]1n1c(Cc2cc(F)c(-c3ccnc(OCc4ccc(C(F)(F)F)cc4F)n3)cc2F)nc2ccc(C(=O)O)cc21` [Example 285, (S)-2-(2,5-difluoro-4-(2-((2-fluoro-4-(trifluoromethyl)benzyl)oxy)pyrimidin-4-yl)benzyl)-1-(4,4-dimethyltetrahydrofuran-3-yl)-1H-benzo[d]imidazole-6-carboxylic acid], 96 pM.
Take `CC1(C)COC[C@H]1n1c(Cc2cc(F)c(-c3ccc(F)c(OCc4cnc(-n5ccnn5)cc4Cl)n3)cc2F)nc2c(F)cc(C(=O)O)cc21` [Example 153, (S)-2-(4-(6-((4-chloro-6-(1H-1,2,3-triazol-1-yl)pyridin-3-yl)methoxy)-5-fluoropyridin-2-yl)-2,5-difluorobenzyl)-1-(4,4-dimethyltetrahydrofuran-3-yl)-4-fluoro-1H-benzo[d]imidazole-6-carboxylic Acid]: the half-maximal effective concentration (EC50) amounted to 11 pM.
Take `CC1(C)COC[C@H]1n1c(Cc2c(F)cc(-c3ccc(F)c(OCc4cnc(-n5ccnn5)cc4Cl)n3)c(F)c2F)nc2ccc(C(=O)O)cc21` [Example 159, (S)-2-(4-(6-((4-chloro-6-(1H-1,2,3-triazol-1-yl)pyridin-3-yl)methoxy)-5-fluoropyridin-2-yl)-2,3,6-trifluorobenzyl)-1-(4,4-dimethyltetrahydrofuran-3-yl)-1H-benzo[d]imidazole-6-carboxylic Acid]: the midpoint of the response, the EC50, lay at 43 pM.
Take `Cn1c(=O)sc2cc(COc3cccc(-c4cc(F)c(Cc5nc6ccc(C(=O)O)cc6n5C[C@@H]5CCO5)cc4F)n3)ccc21` [Example 531, (S)-2-(2,5-difluoro-4-(6-((3-methyl-2-oxo-2,3-dihydrobenzo[d]thiazol-6-yl)methoxy)pyridin-2-yl)benzyl)-1-(oxetan-2-ylmethyl)-1H-benzo[d]imidazole-6-carboxylic acid]: the EC50 was found to be 396 pM. This EC50 lies about 9.2-fold higher than the previous one.
In the case of `CC1(C)COC[C@H]1n1c(Cc2cc(F)c(-c3ccc(F)c(OCc4ccc(Cl)cc4F)n3)cc2F)nc2ccc(C(=O)O)cc21` [Example 497, (S)-2-(4-(6-((4-chloro-2-fluorobenzyl)oxy)-5-fluoropyridin-2-yl)-2,5-difluorobenzyl)-1-(4,4-dimethyltetrahydrofuran-3-yl)-1H-benzo[d]imidazole-6-carboxylic acid] it was 206 pM.
In the case of `COCCn1c(Cc2cc(F)c(-c3cccc(OCc4ccc(-c5cn(C)nn5)nc4)n3)cc2F)nc2ccc(C(=O)O)cc21` [Example 107, 2-(2,5-difluoro-4-(6-((6-(1-methyl-1H-1,2,3-triazol-4-yl)pyridin-3-yl)methoxy)pyridin-2-yl)benzyl)-1-(2-methoxyethyl)-1H-benzo[d]imidazole-6-carboxylic Acid] it was 1400 pM; in that of `COC[C@H]1COC[C@H]1n1c(Cc2cc(F)c(-c3ccc(F)c(OCc4ccc(Cl)cc4F)n3)cc2F)nc2ccc(C(=O)O)cc21` [Example 543, 2-(4-(6-((4-chloro-2-fluorobenzyl)oxy)-5-fluoropyridin-2-yl)-2,5-difluorobenzyl)-1-((3S,4S)-4-(methoxymethyl)tetrahydrofuran-3-yl)-1H-benzo[d]imidazole-6-carboxylic acid], 38 pM.
In the case of `N#Cc1ccc(COc2cccc(-c3cc(F)c(Cc4nc5ccc(C(=O)O)cc5n4C4COC[C@@H]4CO)cc3F)n2)c(F)c1` (mixture of isomers) [Example 216, 2-(4-(6-((4-cyano-2-fluorobenzyl)oxy)pyridin-2-yl)-2,5-difluorobenzyl)-1-((3S,4S)-4-(hydroxymethyl)tetrahydrofuran-3-yl)-1H-benzo[d]imidazole-6-carboxylic acid], the midpoint of the response, the EC50, lay at 56 pM. The EC50 values of the last two compounds are within 1.5-fold of each other.
Take `Cc1cc(Cc2nc3c(F)cc(C(=O)O)cc3n2[C@@H]2COCC2(C)C)c(Cl)cc1-c1ccnc(OCc2ccc(Cl)cc2)n1` [Example 212, (S)-2-(2-chloro-4-(2-((4-chlorobenzyl)oxy)pyrimidin-4-yl)-5-methylbenzyl)-1-(4,4-dimethyltetrahydrofuran-3-yl)-4-fluoro-1H-benzo[d]imidazole-6-carboxylic acid]: the half-maximal effective concentration (EC50) amounted to 379 pM.
In the case of `Cc1ccc(COc2cccc(-c3cc(F)c(Cc4nc5ccc(C(=O)O)cc5n4[C@@H]4COCC4(C)C)cc3F)n2)c(F)c1` [Example 463, (S)-2-(2,5-difluoro-4-(6-((2-fluoro-4-methylbenzyl)oxy)pyridin-2-yl)benzyl)-1-(4,4-dimethyltetrahydrofuran-3-yl)-1H-benzo[d]imidazole-6-carboxylic acid] it was 209 pM.
In the case of `CC1(C)COCC1n1c(Cc2cc(F)c(-c3cccc(OCc4cnc(Cl)cn4)n3)cc2F)nc2ccc(C(=O)O)cc21` (stereo not drawn) [Example 93, 2-(4-(6-((5-chloropyrazin-2-yl)methoxy)pyridin-2-yl)-2,5-difluorobenzyl)-1-(4,4-dimethyltetrahydrofuran-3-yl)-1H-benzo[d]imidazole-6-carboxylic Acid] it was 350 pM; in that of `CO[C@H]1CCOC[C@H]1n1c(Cc2cc(F)c(-c3cccc(OCc4ccc(C#N)cc4F)n3)cc2F)nc2ccc(C(=O)O)cc21` [Example 70, 2-(4-(6-((4-cyano-2-fluorobenzyl)oxy)pyridin-2-yl)-2,5-difluorobenzyl)-1-((3R,4S)-4-methoxytetrahydro-2H-pyran-3-yl)-1H-benzo[d]imidazole-6-carboxylic Acid], 260 pM; in that of `CO[C@@]1(C)COC[C@H]1n1c(Cc2cc(F)c(-c3cccc(OCc4ccc(C#N)cc4F)n3)cc2F)nc2ccc(C(=O)O)cc21` (single isomer, unassigned) [Example 311A], 64 pM.

The EC50 is the concentration at which the effect is half-maximal. A high value points to weaker potency.
